Laboratory results from PubChem BioAssay (NCI).
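GI50 = concentration required for 50% inhibition of growth. At the TGI there is no net growth.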

How the values were obtained:
Experiment in all cases: growth of human tumour cells (NCI), 384-well format
SK-MEL-28 melanoma = system: SK-MEL-28 melanoma
K-562 leukemia = system: K-562 leukemia
MCF7 breast = system: MCF7 breast
LOX IMVI melanoma = system: LOX IMVI melanoma
M14 melanoma = system: M14 melanoma
UACC-257 melanoma = system: UACC-257 melanoma
IGROV1 ovarian = system: IGROV1 ovarian
SNB-75 CNS = system: SNB-75 CNS
TK-10 renal = system: TK-10 renal
OVCAR-4 ovarian = system: OVCAR-4 ovarian
ACHN renal = system: ACHN renal
CCRF-CEM leukemia = system: CCRF-CEM leukemia
EKVX NSCLC = system: EKVX NSCLC
SK-MEL-5 melanoma = system: SK-MEL-5 melanoma
HL-60(TB) leukemia = system: HL-60(TB) leukemia
NCI-H522 lung = system: NCI-H522 lung
A498 renal = system: A498 renal
HCC-2998 colon = system: HCC-2998 colon
DU-145 prostate = system: DU-145 prostate
786-0 renal = system: 786-0 renal
MDA-MB-468 breast = system: MDA-MB-468 breast
HOP-92 NSCLC = system: HOP-92 NSCLC
MDA-MB-435 melanoma = system: MDA-MB-435 melanoma
SN12C renal = system: SN12C renal
PC-3 prostate = system: PC-3 prostate
NCI-H226 lung = system: NCI-H226 lung
NCI-H23 lung = system: NCI-H23 lung
MALME-3M melanoma = system: MALME-3M melanoma
OVCAR-8 ovarian = system: OVCAR-8 ovarian
KM12 colon = system: KM12 colon
UACC-62 melanoma = system: UACC-62 melanoma
SR leukemia = system: SR leukemia
NCI-H322M lung = system: NCI-H322M lung
HOP-62 NSCLC = system: HOP-62 NSCLC
HT29 colon = system: HT29 colon
OVCAR-3 ovarian = system: OVCAR-3 ovarian
SW-620 colon = system: SW-620 colon
U251 glioblastoma = system: U251 glioblastoma
RPMI-8226 leukemia = system: RPMI-8226 leukemia
SF-268 CNS = system: SF-268 CNS
HS 578T breast = system: HS 578T breast
MDA-MB-231 breast = system: MDA-MB-231 breast
NCI/ADR-RES ovarian = system: NCI/ADR-RES ovarian
RXF 393 renal = system: RXF 393 renal
BT-549 breast = system: BT-549 breast
HCT-15 colon = system: HCT-15 colon
SK-OV-3 ovarian = system: SK-OV-3 ovarian
UO-31 renal = system: UO-31 renal
T-47D breast = system: T-47D breast
NCI-H460 NSCLC = system: NCI-H460 NSCLC
SNB-19 CNS = system: SNB-19 CNS
A549 NSCLC = system: A549 NSCLC
MOLT-4 leukemia = system: MOLT-4 leukemia
SF-295 CNS = system: SF-295 CNS
CAKI-1 renal = system: CAKI-1 renal
HCT-116 colon = system: HCT-116 colon
COLO 205 colon = system: COLO 205 colon
SF-539 CNS = system: SF-539 CNS
OVCAR-5 ovarian = system: OVCAR-5 ovarian

`Nc1cc(C(F)(F)F)c(-c2nc(N3CCOCC3)nc(N3CCOCC3)n2)cn1` gave a GI50 (SK-MEL-28 melanoma) of 461 nM, a TGI (SK-MEL-28 melanoma) of 6540 nM and a GI50 (K-562 leukemia) of 2780 nM. The TGI (K-562 leukemia) was 40500 nM, the GI50 (MCF7 breast) was 151 nM and the TGI (MCF7 breast) was 11900 nM. The GI50 (LOX IMVI melanoma) was 1570 nM, the TGI (LOX IMVI melanoma) was 9360 nM and the GI50 (M14 melanoma) was 616 nM. The TGI (M14 melanoma) was 12500 nM, the GI50 (UACC-257 melanoma) was 1700 nM and the TGI (UACC-257 melanoma) was 20800 nM. It also gave a GI50 (IGROV1 ovarian) of 119 nM, a TGI (IGROV1 ovarian) of 468 nM and a GI50 (SNB-75 CNS) of 288 nM. For the same compound, the TGI (SNB-75 CNS) was 2920 nM, the GI50 (TK-10 renal) was 432 nM and the TGI (TK-10 renal) was 3870 nM. For the same compound, the GI50 (OVCAR-4 ovarian) was 1480 nM, the TGI (OVCAR-4 ovarian) was 7900 nM and the GI50 (ACHN renal) was 570 nM. The TGI (ACHN renal) was 8660 nM, the GI50 (CCRF-CEM leukemia) was 1340 nM and the TGI (CCRF-CEM leukemia) was 10900 nM. For the same compound, the GI50 (EKVX NSCLC) was 342 nM, the TGI (EKVX NSCLC) was 3530 nM and the GI50 (SK-MEL-5 melanoma) was 503 nM. It also gave a TGI (SK-MEL-5 melanoma) of 2810 nM, a GI50 (HL-60(TB) leukemia) of 170 nM and a TGI (HL-60(TB) leukemia) of 3430 nM. The GI50 (NCI-H522 lung) was 360 nM, the TGI (NCI-H522 lung) was 10200 nM and the GI50 (A498 renal) was 320 nM. The TGI (A498 renal) was 2260 nM, the GI50 (HCC-2998 colon) was 1100 nM and the TGI (HCC-2998 colon) was 48900 nM. It also gave a GI50 (DU-145 prostate) of 847 nM, a TGI (DU-145 prostate) of 21300 nM and a GI50 ([…]-0 renal) of 1320 nM. For the same compound, the TGI (786-0 renal) was 12100 nM, the GI50 (MDA-MB-468 breast) was 353 nM and the TGI (MDA-MB-468 breast) was 2200 nM. For the same compound, the GI50 (HOP-92 NSCLC) was 274 nM, the TGI (HOP-92 NSCLC) was 2120 nM and the GI50 (MDA-MB-435 melanoma) was 1600 nM. The TGI (MDA-MB-435 melanoma) was 9730 nM, the GI50 (SN12C renal) was 195 nM and the TGI (SN12C renal) was 2300 nM. For the same compound, the GI50 (PC-3 prostate) was 291 nM, the TGI (PC-3 prostate) was 4270 nM and the GI50 (NCI-H226 lung) was 563 nM. For the same compound, the TGI (NCI-H226 lung) was 4350 nM, the GI50 (NCI-H23 lung) was 552 nM and the TGI (NCI-H23 lung) was 15900 nM. It also gave a GI50 (MALME-3M melanoma) of 174 nM, a TGI (MALME-3M melanoma) of 1030 nM and a GI50 (OVCAR-8 ovarian) of 1120 nM. For the same compound, the TGI (OVCAR-8 ovarian) was 93600 nM, the GI50 (KM12 colon) was 1270 nM and the TGI (KM12 colon) was 14600 nM. The GI50 (UACC-62 melanoma) was 520 nM, the TGI (UACC-62 melanoma) was 3790 nM and the TGI (SR leukemia) was 255 nM. For the same compound, the GI50 (NCI-H322M lung) was 534 nM, the TGI (NCI-H322M lung) was 11500 nM and the GI50 (HOP-62 NSCLC) was 1310 nM. For the same compound, the TGI (HOP-62 NSCLC) was 14100 nM, the GI50 (HT29 colon) was 554 nM and the TGI (HT29 colon) was 14800 nM. The GI50 (OVCAR-3 ovarian) was 354 nM, the TGI (OVCAR-3 ovarian) was 3920 nM and the GI50 (SW-620 colon) was 2600 nM. For the same compound, the TGI (SW-620 colon) was over 100000 nM, the GI50 (U251 glioblastoma) was 3230 nM and the TGI (U251 glioblastoma) was 95500 nM. It also gave a GI50 (RPMI-8226 leukemia) of 221 nM, a TGI (RPMI-8226 leukemia) of 1270 nM and a GI50 (SF-268 CNS) of 1460 nM. For the same compound, the TGI (SF-268 CNS) was 18200 nM, the GI50 (HS 578T breast) was 276 nM and the TGI (HS 578T breast) was 1860 nM. It also gave a GI50 (MDA-MB-231 breast) of 834 nM, a TGI (MDA-MB-231 breast) of 38700 nM and a GI50 (NCI/ADR-RES ovarian) of 1920 nM. It also gave a TGI (NCI/ADR-RES ovarian) of 17300 nM, a GI50 (RXF 393 renal) of 1150 nM and a TGI (RXF 393 renal) of 4960 nM. The GI50 (BT-549 breast) was 678 nM, the TGI (BT-549 breast) was 4420 nM and the GI50 (HCT-15 colon) was 497 nM. It also gave a TGI (HCT-15 colon) of over 100000 nM, a GI50 (SK-OV-3 ovarian) of 332 nM and a TGI (SK-OV-3 ovarian) of 2040 nM. For the same compound, the GI50 (UO-31 renal) was 426 nM, the TGI (UO-31 renal) was 19200 nM and the GI50 (T-47D breast) was 107 nM. For the same compound, the TGI (T-47D breast) was 583 nM, the GI50 (NCI-H460 NSCLC) was 246 nM and the TGI (NCI-H460 NSCLC) was 10400 nM. For the same compound, the GI50 (SNB-19 CNS) was 8530 nM, the TGI (SNB-19 CNS) was 50200 nM and the GI50 (A549 NSCLC) was 902 nM. For the same compound, the TGI (A549 NSCLC) was 9000 nM, the GI50 (MOLT-4 leukemia) was 293 nM and the TGI (MOLT-4 leukemia) was 1610 nM. It also gave a GI50 (SF-295 CNS) of 405 nM, a TGI (SF-295 CNS) of 2440 nM and a GI50 (CAKI-1 renal) of 292 nM. It also gave a TGI (CAKI-1 renal) of 2950 nM, a GI50 (HCT-116 colon) of 833 nM and a TGI (HCT-116 colon) of 22500 nM. It also gave a GI50 (COLO 205 colon) of 544 nM, a TGI (COLO 205 colon) of 9660 nM and a GI50 (SF-539 CNS) of 1150 nM. For the same compound, the TGI (SF-539 CNS) was 13700 nM.
Work on `C/C(=C\c1csc(C)n1)[C@@H]1C[C@@H]2O[C@]2(C)CCC[C@H](C)[C@H](O)[C@@H](C)C(=O)C(C)(C)[C@@H](O)CC(=O)N1` yielded a TGI (MCF7 breast) of over 100000 nM, a TGI (LOX IMVI melanoma) of over 100000 nM and a TGI (M14 melanoma) of 10.3 nM. It also gave a TGI (UACC-257 melanoma) of over 100000 nM, a GI50 (IGROV1 ovarian) of 27.6 nM and a TGI (IGROV1 ovarian) of over 100000 nM. It also gave a GI50 (TK-10 renal) of 55.2 nM, a TGI (TK-10 renal) of over 100000 nM and a TGI (OVCAR-4 ovarian) of over 100000 nM. It also gave a GI50 (ACHN renal) of 40.3 nM, a TGI (ACHN renal) of over 100000 nM and a GI50 (EKVX NSCLC) of 24 nM. It also gave a TGI (EKVX NSCLC) of over 100000 nM, a TGI (A498 renal) of over 100000 nM and a TGI (HCC-2998 colon) of 12.3 nM. For the same compound, the TGI (DU-145 prostate) was 10.7 nM, the TGI (786-0 renal) was 87.1 nM and the TGI (HOP-92 NSCLC) was over 100000 nM. The TGI (SN12C renal) was over 100000 nM, the TGI (NCI-H226 lung) was over 100000 nM and the TGI (MALME-3M melanoma) was over 100000 nM. For the same compound, the TGI (KM12 colon) was over 100000 nM, the TGI (OVCAR-5 ovarian) was over 100000 nM and the GI50 (NCI-H322M lung) was 10.7 nM. It also gave a TGI (NCI-H322M lung) of over 100000 nM, a TGI (SF-268 CNS) of over 100000 nM and a GI50 (NCI/ADR-RES ovarian) of 437 nM. It also gave a TGI (NCI/ADR-RES ovarian) of 1910 nM, a GI50 (HCT-15 colon) of 14.1 nM and a TGI (HCT-15 colon) of 384 nM. It also gave a TGI (SK-OV-3 ovarian) of over 100000 nM, a GI50 (UO-31 renal) of 60.5 nM and a TGI (UO-31 renal) of over 100000 nM. The TGI (T-47D breast) was over 100000 nM, the GI50 (SNB-19 CNS) was 15.7 nM and the TGI (SNB-19 CNS) was over 100000 nM. It also gave a TGI (A549 NSCLC) of over 100000 nM, a TGI (CAKI-1 renal) of over 100000 nM and a TGI (SF-539 CNS) of 13.5 nM.
